Data: patent US20140037583A1, “METHODS AND COMPOSITIONS SUITABLE FOR PREVENTING AND TREATING HYPERLEPTINEMIA” (priority 2011, published 2014)

Test system: Leptin mRNA in terminally differentiated canine adipocytes
Test: Expression of leptin mRNA in canine adipocytes treated with Equol (quantitative PCR)
Type: cell-based
Details: 24 hours, n=3
Experimental: Treatment: Terminally differentiated canine adipocytes were exposed to 200, 25, and 0 uM Equol for 24 hours. Cells were collected for RNA isolation.
RNA Isolation: Treatment cell samples were vortexed and homogenized using a Quiashredder (Qiagen, Valencia, Calif.) column according to manufacturer's directions. The homogenized lysate was collected and 1 equal volume of 64% ethanol was added to it. This mixture was then applied to an RNAqueous™ filter cartridge, (Ambion Inc., Austin, Tex.) 700 uL at a time, and centrifuged for one minute at 10,000 rpm. The cartridge was washed using 700 uL wash solution #1 and 500 uL wash solution #2/3 with centrifugation at 10,000 rpm for one minute for each wash. The filter cartridge was dried by centrifugation (10,000 rpm) for one minute. […] The resulting RNA was DNAse-treated and quantitated in a Beckman DU 640B spectrophotometer (Beckman Coulter, Inc., Brea, Calif.) at 260 nm. Additionally, quantity and quality were assessed using a bioanalyzer (Agilent, Santa Clara, Calif.) according to manufacturer's directions.
Quantitative PCR: All samples were run singularly against each primer/probe set to determine what standard curve(s) should be used. […] Values were normalized to cyclophilin A (PPIA) levels as determined by quantitative PCR. Inductions were calculated from each of the lowest sample's normalized value. […]

Compound: Oc1ccc([C@H]2COc3cc(O)ccc3C2)cc1 [Equol]
- Leptin mRNA expression (normalized to cyclophilin A, induction relative to lowest sample) (25 uM Equol): 2.58
- Leptin mRNA expression (normalized to cyclophilin A, induction relative to lowest sample) (200 uM Equol): 1.40
